These are literature values, as cited in patent publication US7498130B2, “Method of reducing viral load” (Massachusetts General Hospital, priority 2003, dated 2009).

For one data set, the system named is HIV. The following applies: infected cells.
For data set [1] the following is noted: in vivo.

antithrombin III [ATIII]: in the data set on HIV, the “lowering HIV viral loads” value is “inactive”. The overall elimination half-life in data set [1] is 18.6 h.
